According to ChEMBL document CHEMBL1201862, “PubChem BioAssay data set” (2004):
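In this assay, cells in 96-well plates receive the compound at five concentrations for 48 hours. Endpoints are linearly interpolated between the surrounding concentrations. Here, GI50 denotes the concentration required for 50% inhibition of growth.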 The source made the active and inactive calls. Rule as the data show it: active = GI50 up to about 1.1 µM and inactive = higher.

What was measured:
Assay in all cases: inhibition of tumour cell growth, NCI panel, 48 h
A549 = test system: A549
LOX IMVI = test system: LOX IMVI
HCC 2998 = test system: HCC 2998
MCF7 = test system: MCF7
HOP-62 = test system: HOP-62
HCT-116 = test system: HCT-116
SW-620 = test system: SW-620
A498 = test system: A498
OVCAR-4 = test system: OVCAR-4
786-0 = test system: 786-0
SF-295 = test system: SF-295
SF-539 = test system: SF-539
SNB-75 = test system: SNB-75
EKVX = test system: EKVX
OVCAR-5 = test system: OVCAR-5
CCRF-CEM = test system: CCRF-CEM
PC-3 = test system: PC-3
SK-MEL-28 = test system: SK-MEL-28
HCT-15 = test system: HCT-15
SF-268 = test system: SF-268

SMILES	GI50 (A549)	GI50 (LOX IMVI)	GI50 (HCC 2998)	GI50 (MCF7)	GI50 (HOP-62)	GI50 (HCT-116)	GI50 (SW-620)	GI50 (A498)	GI50 (OVCAR-4)	GI50 (786-0)	GI50 (SF-295)	GI50 (SF-539)	GI50 (SNB-75)	GI50 (EKVX)	GI50 (OVCAR-5)	GI50 (CCRF-CEM)	GI50 (PC-3)	GI50 (SK-MEL-28)	GI50 (HCT-15) [µM]	GI50 (SF-268)
CCOC(=O)C(=[N+]=[N-])C(=O)Nc1nn2nnnc2c2ccccc12	> 100 µM (inactive)	> 100 µM (inactive)	> 100 µM (inactive)	> 100 µM (inactive)	> 100 µM (inactive)	> 100 µM (inactive)	> 100 µM (inactive)	> 100 µM (inactive)	> 100 µM (inactive)	> 100 µM (inactive)	> 100 µM (inactive)	> 100 µM (inactive)	33.8 µM (inactive)	> 100 µM (inactive)	> 100 µM (inactive)	> 100 µM (inactive)	> 100 µM (inactive)	> 100 µM (inactive)	–	–
OC(c1cc(C(O)(C(F)(F)F)C(F)(F)F)ncn1)(C(F)(F)F)C(F)(F)F	> 10 µM (inactive)	> 10 µM (inactive)	> 10 µM (inactive)	> 10 µM (inactive)	> 10 µM (inactive)	> 10 µM (inactive)	> 10 µM (inactive)	> 10 µM (inactive)	> 10 µM (inactive)	> 10 µM (inactive)	> 10 µM (inactive)	> 10 µM (inactive)	> 10 µM (inactive)	> 10 µM (inactive)	–	> 10 µM (inactive)	> 10 µM (inactive)	> 10 µM (inactive)	> 10	> 10 µM (inactive)
CCSc1nc(C)nc2c1sc1nc3ccccc3n12	> 100 µM (inactive)	> 100 µM (inactive)	> 100 µM (inactive)	> 100 µM (inactive)	–	> 100 µM (inactive)	> 100 µM (inactive)	> 100 µM (inactive)	> 78.3 µM (inactive)	> 100 µM (inactive)	> 100 µM (inactive)	> 100 µM (inactive)	> 94 µM (inactive)	> 100 µM (inactive)	> 100 µM (inactive)	> 100 µM (inactive)	> 100 µM (inactive)	> 100 µM (inactive)	> 100	> 100 µM (inactive)
COc1cc2c(cc1OC)C(Cc1ccccc1CCCl)=NCC2	57.9 µM (inactive)	–	24.2 µM (inactive)	49.4 µM (inactive)	> 100 µM (inactive)	21.1 µM (inactive)	42 µM (inactive)	> 100 µM (inactive)	45.6 µM (inactive)	> 100 µM (inactive)	33.7 µM (inactive)	21.2 µM (inactive)	30.3 µM (inactive)	> 100 µM (inactive)	> 100 µM (inactive)	58.7 µM (inactive)	31.1 µM (inactive)	> 100 µM (inactive)	25.1	53 µM (inactive)
N#C/C(=C\c1ccccc1)C(=O)Nc1nnc(-c2ccccc2)o1	34.1 µM (inactive)	37.5 µM (inactive)	63.1 µM (inactive)	50.9 µM (inactive)	37.6 µM (inactive)	33.3 µM (inactive)	52.7 µM (inactive)	27.3 µM (inactive)	32.4 µM (inactive)	53 µM (inactive)	13.2 µM (inactive)	–	48.8 µM (inactive)	47.3 µM (inactive)	82.6 µM (inactive)	17.9 µM (inactive)	42.1 µM (inactive)	39.9 µM (inactive)	26.9	47.2 µM (inactive)
O=C(O)CO[C@@]12C#C/C=C\C#C[C@@H]3N(C(=O)Oc4ccccc4)c4ccccc4[C@]14O[C@@]34CCC2	> 100 µM (inactive)	40.5 µM (inactive)	12.5 µM (inactive)	14.6 µM (inactive)	83.8 µM (inactive)	33.4 µM (inactive)	47.6 µM (inactive)	59.3 µM (inactive)	56.1 µM (inactive)	26.9 µM (inactive)	> 10 µM (inactive)	31.4 µM (inactive)	–	> 100 µM (inactive)	–	29.7 µM (inactive)	26.2 µM (inactive)	52.8 µM (inactive)	8.55	14.3 µM (inactive)
Cc1cc(OCc2nn(CN3CCN(C)CC3)c(=S)n2/N=C/c2ccc(-c3ccc(Cl)cc3Cl)o2)ccc1Cl	–	80.7 µM (inactive)	16.1 µM (inactive)	39.4 µM (inactive)	39.3 µM (inactive)	> 100 µM (inactive)	15.7 µM (inactive)	36.3 µM (inactive)	27 µM (inactive)	90.2 µM (inactive)	84.1 µM (inactive)	> 100 µM (inactive)	–	> 100 µM (inactive)	> 100 µM (inactive)	35.3 µM (inactive)	85.3 µM (inactive)	33.1 µM (inactive)	28.5	33.1 µM (inactive)
Cc1cc(S(=O)(=O)Nc2nc(-c3ccccn3)n[nH]2)c(S)cc1Cl	12.9 µM (inactive)	27.2 µM (inactive)	15 µM (inactive)	31.3 µM (inactive)	9.75 µM (inactive)	16.1 µM (inactive)	12.2 µM (inactive)	16.9 µM (inactive)	18.6 µM (inactive)	12.1 µM (inactive)	–	21.7 µM (inactive)	28.1 µM (inactive)	16.1 µM (inactive)	15.5 µM (inactive)	–	31.1 µM (inactive)	35.1 µM (inactive)	5.68	17.7 µM (inactive)
